Test system: amyloid plaques and fibrils in human brain slices
Experiment: Human brain slice competition assay using autoradiography
Assay type: binding
Details: radiolabeled tracer approx. 20 uCi, 90 min rt, lower = more displacement; for _max low dose (percent dose remaining relative to control with no blocker): blocker 0.25 uM; for _max high dose (percent dose remaining relative to control with no blocker): blocker 2.5 uM
Protocol: Human Brain Slice Competition Assay Using Autoradiography
Briefly, 5 micron thick human brain slices from regions of the brain bearing high amyloid plaque and fibril burden were incubated with approximately 20 uCi of a radiolabeled tracer in 2.5%:2.5%:95% DMSO:EtOH:PBS in the presence of blocker (2.5 and 0.25 uM total concentration) or absence of blocker (control). The slices were incubated at rt for 90 min. The slices were then quickly washed in PBS, followed by 70% EtOH:PBS for 2 min, then 30% EtOH:PBS for 2 min and then quickly washed with PBS. The slices were dried for 30 min and then exposed on autoradiographic film for 20 min. The brain slices were then removed from the slide and the radioactivity counted in a gamma counter. The percent dose remaining, relative to a control with no blocker, at 0.25 uM is represented in the “_max low dose” column. The percent dose remaining, relative to a control with no blocker, at 2.5 uM is represented in the “_max high dose” column.

Compound | _max low dose (percent dose remaining relative to control with no blocker) [%] | _max high dose (percent dose remaining relative to control with no blocker) [%]
Nc1ccc2c(c1)[nH]c1cc(OCc3ccccc3)ccc12 [Compound W42] | 49.95 | 17.60
Nc1ccc2[nH]c3ccc(OCc4ccccc4)cc3c2c1 [Compound W60] | 105.87 | 115.14
COc1ccc2c(c1)[nH]c1c(C)nccc12 [Compound W65] | 105.49 | 94.16
c1ccc2c(c1)[nH]c1cnccc12 [Compound W67] | 101.83 | 94.93
c1ccc2c(c1)[nH]c1cc(OCCOCCOCCOc3ccc4c(c3)[nH]c3ccccc34)ccc12 [Compound W70] | 88.20 | 89.53
CN(C)c1ccc(/C=C2\C(=O)Nc3ccc(F)cc32)cc1 [Compound W71] | 104.61 | 88.00
Oc1cccc(-c2cc3ccccn3c2)c1 [Compound W73] | 66.38 | 35.16
N#Cc1ccc(/C=C2\C(=O)Nc3ccc(F)cc32)cc1 [Compound W79] | 92.77 | 96.90
c1ccc2c(c1)Cn1c-2nc2ccccc21 [Compound W81] | 96.06 | 81.94
FCCOc1cccc(-c2cc3ccccn3c2)c1 [Compound W84] | 97.22 | 40.32
O=c1sc2ccccc2n1/C=C/c1ccccc1 [Compound W88] | 29.58 | 7.65
CC(=O)c1ccc2[nH]c(=O)sc2c1 [Compound W92] | 112.87 | 88.58
FCCOCCOCCOc1ccc2c(c1)[nH]c1sc3ccccc3c12 [Compound W94] | 103.76 | 40.74
N#CC1c2ccc(O)cc2N2C=CC=CC12 (stereo not drawn) [Compound W99] | 87.14 | 76.06
NC(=O)c1ccc2cc(-c3cccc([N+](=O)[O-])c3)cn2c1 [Compound W100] | 97.53 | 75.02
CN(CCOCCOCCF)c1ccc2c(c1)[nH]c1cc(O)ccc12 [Compound W101] | 81.33 | 73.62
CN(C)c1ccc2c3ccc(OCCF)cc3n(CCF)c2c1 [Compound W102] | 91.92 | 92.00
Oc1ccc(-c2cc3ccccn3c2)cc1 [Compound W103] | 35.38 | 3.50
CNc1ccc2c(c1)[nH]c1cc(OCc3ccccc3)ccc12 [Compound W104] | 48.35 | 34.77
CNc1ccc2c(c1)[nH]c1cc(OCCF)ccc12 [Compound W106] | 46.04 | 21.03
COc1ccc2c(c1)sc1nc(-c3ccc(F)cc3)cn12 [Compound W119] | – | 7.85
CNc1ccc(-c2nc3ccc(OC)cc3s2)cn1 [Compound W184] | – | 8.05

— patent publication US8420052B2, “Imaging agents useful for identifying AD pathology” (Siemens Medical Solutions USA, Inc., priority 2008, dated 2013)
